In ChEMBL document CHEMBL4118148, “Design, synthesis and cardiovascular evaluation of some aminoisopropanoloxy derivatives of xanthone” (Bioorg Med Chem, 2018):
Values belong to the compound of their own block, whether it stands above or below them. The source made the active and inactive calls. The calls are words filed in the database; no cut-off is given here.

Tests used:
[1] = test system: Rattus norvegicus; experiment: Hypotensive activity in normotensive Wistar rat assessed as systolic blood pressure at 0.5 mg/kg, iv measured after 30 mins (reference value: 147.7 +/- 5.9 mmHg); type: functional
[2] = test system: Rattus norvegicus; experiment: Hypotensive activity in normotensive Wistar rat assessed as systolic blood pressure at 0.5 mg/kg, iv measured after 10 mins (reference value: 116 +/- 4.6 mmHg); type: functional
[3] = test system: Rattus norvegicus; experiment: Hypotensive activity in normotensive Wistar rat assessed as systolic blood pressure at 0.5 mg/kg, iv measured after 5 mins (reference value: 147.7 +/- 5.9 mmHg); type: functional
[4] = test system: Rattus norvegicus; experiment: Hypotensive activity in normotensive Wistar rat assessed as systolic blood pressure at 0.5 mg/kg, iv measured after 20 mins (reference value: 116 +/- 4.6 mmHg); type: functional
[5] = test system: Rattus norvegicus; experiment: Hypotensive activity in normotensive Wistar rat assessed as systolic blood pressure at 0.5 mg/kg, iv measured after 30 mins (reference value: 116 +/- 4.6 mmHg); type: functional
[6] = test system: Rattus norvegicus; experiment: Hypotensive activity in normotensive Wistar rat assessed as systolic blood pressure at 0.5 mg/kg, iv measured after 10 mins (reference value: 147.7 +/- 5.9 mmHg); type: functional
[7] = test system: Rattus norvegicus; experiment: Hypotensive activity in normotensive Wistar rat assessed as systolic blood pressure at 0.5 mg/kg, iv measured after 60 mins (reference value: 116 +/- 4.6 mmHg); type: functional
[8] = test system: Rattus norvegicus; experiment: Hypotensive activity in normotensive Wistar rat assessed as systolic blood pressure at 0.5 mg/kg, iv measured after 20 mins (reference value: 147.7 +/- 5.9 mmHg); type: functional
[9] = test system: Rattus norvegicus; experiment: Hypotensive activity in normotensive Wistar rat assessed as reduction in diastolic blood pressure at 0.5 mg/kg, iv measured over 30 mins relative to control; type: functional; set-up: scale not given: the % may be the effect or the level left
[10] = test system: Rattus norvegicus; experiment: Hypotensive activity in normotensive Wistar rat assessed as reduction in systolic blood pressure administered iv measured after 60 mins; type: functional; set-up: scale not given: the % may be the effect or the level left
[11] = target: Beta-1 adrenergic receptor (Rattus norvegicus) (UniProt P18090); experiment: Displacement of [3H]-CGP-12177 from adrenergic beta1 receptor in Wistar rat cortex at 10^-5 M incubated for 60 mins by microbeta liquid scintillation counting analysis
[12] = test system: Rattus norvegicus; experiment: Hypotensive activity in normotensive Wistar rat assessed as reduction in systolic blood pressure at 1 mg/kg, iv measured over 40th min relative to control; type: functional; set-up: scale not given: the % may be the effect or the level left
[13] = test system: Rattus norvegicus; experiment: Hypotensive activity in normotensive Wistar rat assessed as reduction in diastolic blood pressure at 1 mg/kg, iv measured over 30 mins relative to control; type: functional; set-up: scale not given: the % may be the effect or the level left
[14] = test system: Rattus norvegicus; experiment: Hypotensive activity in normotensive Wistar rat assessed as reduction in diastolic blood pressure at 1 mg/kg, iv measured over 10 mins relative to control; type: functional; set-up: scale not given: the % may be the effect or the level left
[15] = test system: Rattus norvegicus; experiment: Cardiotoxicity in Wistar rat assessed as effect on PQ interval time at 1 mg/kg, iv measured after 5 mins (reference value: 56.8 +/- 1.8 ms); type: toxicity, organism-based; conditions: in vivo
[16] = test system: Rattus norvegicus; experiment: In vivo inhibition of beta adrenoceptor in Wistar rat assessed as reduction in isoprenaline-induced tachycardia at 1 mg/kg, iv administered as single dose 10 mins prior to isoprenaline injection; type: functional, organism-based
[17] = test system: Rattus norvegicus; experiment: Cardiotoxicity in Wistar rat assessed as effect on QTC interval time at 1 mg/kg, iv measured after 1 min (reference value: 137.7 +/- 2 ms); type: toxicity, organism-based; conditions: in vivo
[18] = test system: Rattus norvegicus; experiment: Cardiotoxicity in Wistar rat assessed as effect on PQ interval time at 1 mg/kg, iv measured after 1 min (reference value: 56.8 +/- 1.8 ms); type: toxicity, organism-based; conditions: in vivo
[19] = test system: Rattus norvegicus; experiment: Cardiotoxicity in Wistar rat assessed as effect on QRS interval time at 1 mg/kg, iv measured after 15 mins (reference value: 19.4 +/- 0.9 ms); type: toxicity, organism-based; conditions: in vivo, 0.25 h
[20] = test system: Rattus norvegicus; experiment: Hypotensive activity in normotensive Wistar rat assessed as reduction in systolic blood pressure at 1 mg/kg, iv measured after 30 to 60 mins relative to control; type: functional; set-up: scale not given: the % may be the effect or the level left
[21] = test system: Rattus norvegicus; experiment: Cardiotoxicity in Wistar rat assessed as effect on QT interval time at 1 mg/kg, iv measured after 15 mins (reference value: 59.2 +/- 0.5 ms); type: toxicity, organism-based; conditions: in vivo, 0.25 h
[22] = test system: Rattus norvegicus; experiment: Cardiotoxicity in Wistar rat assessed as effect on QRS interval time at 1 mg/kg, iv measured after 1 min (reference value: 19.4 +/- 0.9 ms); type: toxicity, organism-based; conditions: in vivo
[23] = test system: Rattus norvegicus; experiment: Cardiotoxicity in Wistar rat assessed as effect on PQ interval time at 1 mg/kg, iv measured after 15 mins (reference value: 56.8 +/- 1.8 ms); type: toxicity, organism-based; conditions: in vivo, 0.25 h
[24] = test system: Rattus norvegicus; experiment: Cardiotoxicity in Wistar rat assessed as effect on QT interval time at 1 mg/kg, iv measured after 5 mins (reference value: 59.2 +/- 0.5 ms); type: toxicity, organism-based; conditions: in vivo
[25] = test system: Rattus norvegicus; experiment: Hypotensive activity in normotensive Wistar rat assessed as reduction in diastolic blood pressure at 1 mg/kg, iv measured after 30 to 60 mins relative to control; type: functional; set-up: scale not given: the % may be the effect or the level left
[26] = test system: Rattus norvegicus; experiment: Cardiotoxicity in Wistar rat assessed as effect on heart rate at 1 mg/kg, iv measured after 5 mins (reference value: 320.6 +/- 8.1 bpm); type: toxicity, organism-based; conditions: in vivo
[27] = test system: Rattus norvegicus; experiment: Cardiotoxicity in Wistar rat assessed as effect on QT interval time at 1 mg/kg, iv measured after 1 min (reference value: 59.2 +/- 0.5 ms); type: toxicity, organism-based; conditions: in vivo
[28] = test system: Rattus norvegicus; experiment: Hypotensive activity in normotensive Wistar rat assessed as systolic blood pressure at 2.5 mg/kg, iv measured after 60 mins (reference value: 148.5 +/- 2.6 mmHg); type: functional
[29] = test system: Rattus norvegicus; experiment: Hypotensive activity in normotensive Wistar rat assessed as reduction in diastolic blood pressure at 2.5 mg/kg, iv measured after 5 to 10 mins relative to control; type: functional; set-up: scale not given: the % may be the effect or the level left
[30] = test system: Rattus norvegicus; experiment: Hypotensive activity in normotensive Wistar rat assessed as systolic blood pressure at 2.5 mg/kg, iv measured after 20 mins (reference value: 148.5 +/- 2.6 mmHg); type: functional
[31] = test system: Rattus norvegicus; experiment: Hypotensive activity in normotensive Wistar rat assessed as diastolic blood pressure at 2.5 mg/kg, iv measured after 5 mins (reference value: 116.2 +/- 1.2 mmHg); type: functional
[32] = test system: Rattus norvegicus; experiment: Hypotensive activity in normotensive Wistar rat assessed as diastolic blood pressure at 2.5 mg/kg, iv measured after 30 mins (reference value: 116.2 +/- 1.2 mmHg); type: functional
[33] = test system: Rattus norvegicus; experiment: Hypotensive activity in normotensive Wistar rat assessed as systolic blood pressure at 2.5 mg/kg, iv measured after 5 mins (reference value: 148.5 +/- 2.6 mmHg); type: functional
[34] = test system: Rattus norvegicus; experiment: Hypotensive activity in normotensive Wistar rat assessed as diastolic blood pressure at 2.5 mg/kg, iv measured after 60 mins (reference value: 116.2 +/- 1.2 mmHg); type: functional
[35] = test system: Rattus norvegicus; experiment: Hypotensive activity in normotensive Wistar rat assessed as diastolic blood pressure at 2.5 mg/kg, iv measured after 10 mins (reference value: 116.2 +/- 1.2 mmHg); type: functional
[36] = test system: Rattus norvegicus; experiment: Hypotensive activity in normotensive Wistar rat assessed as diastolic blood pressure at 2.5 mg/kg, iv measured after 20 mins (reference value: 116.2 +/- 1.2 mmHg); type: functional
[37] = species on record: Rattus norvegicus; experiment: (§1) Inhibition of voltage gated calcium channel in Wistar rat aorta assessed as relaxation of KCl-precontracted aortic rings by measuring reduction in calcium entry in presence of phentolamine
[38] = as §1

Sequence of Beta-1 adrenergic receptor (Rattus norvegicus) (P18090 whole entry, looked up): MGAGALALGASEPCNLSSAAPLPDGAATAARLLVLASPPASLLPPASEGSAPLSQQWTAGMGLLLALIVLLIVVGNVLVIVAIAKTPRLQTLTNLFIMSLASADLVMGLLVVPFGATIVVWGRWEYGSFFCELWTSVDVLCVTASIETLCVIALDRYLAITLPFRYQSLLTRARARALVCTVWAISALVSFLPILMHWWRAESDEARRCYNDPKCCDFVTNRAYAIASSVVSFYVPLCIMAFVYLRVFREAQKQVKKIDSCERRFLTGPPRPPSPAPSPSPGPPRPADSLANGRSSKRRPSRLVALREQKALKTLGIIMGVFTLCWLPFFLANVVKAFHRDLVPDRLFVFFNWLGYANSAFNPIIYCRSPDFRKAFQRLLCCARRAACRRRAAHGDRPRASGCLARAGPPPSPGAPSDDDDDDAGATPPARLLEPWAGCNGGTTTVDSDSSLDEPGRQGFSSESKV

SMILES: Cl.O=c1c2ccccc2oc2c(OCC(O)CN3CCN(c4ccccn4)CC3)cccc12 (racemic)
Activity [1]: 137.7 mmHg | Activity [2]: 114.3 mmHg | Activity [3]: 146.7 mmHg | Activity [4]: 114 mmHg | Activity [5]: 110.3 mmHg | Activity [6]: 144 mmHg | Activity [7]: 105.7 mmHg | Activity [8]: 143 mmHg | Activity [9]: 5 - 9%

SMILES: COc1ccccc1CNCC(O)COc1cccc2c(=O)c3ccccc3oc12.Cl (racemic)
Activity [10]: 7%

Activity [11]: inactive
SMILES: Cl.O=c1c2ccccc2oc2cc(OCC(O)CN3CCN(c4ccccn4)CC3)ccc12 (racemic)
Activity [12]: 8 - 10%

SMILES: COc1ccccc1OCCNCC(O)COc1cccc2c(=O)c3ccccc3oc12.Cl (racemic)
Activity [13]: 7 - 14%

SMILES: COc1ccccc1CCNCC(O)COc1cccc2c(=O)c3ccccc3oc12.Cl (racemic)
Activity [14]: 7%

SMILES: CC(C)(C)NCC(O)COc1cccc2c(=O)c3ccccc3oc12.Cl (racemic)
Time [15]: 58 ms | inhibition [16]: Active | Time [17]: 134.5 ms | Time [18]: 57.6 ms | Time [19]: 19.2 ms | Activity [20]: 10% | Time [21]: 59.6 ms | Time [22]: 19.6 ms | Time [23]: 58 ms | Time [24]: 59.2 ms | Activity [25]: 10 - 13% | Activity [26]: 295.6 bpm | Time [27]: 59.2 ms

inhibition [37]: Dose-dependent effect | inhibition ([37]; concentration not given here): 95% | IC50 [38]: 10.3 µM
SMILES: COc1ccc(CCNCC(O)COc2cccc3c(=O)c4ccccc4oc23)cc1OC.Cl (racemic)
Activity [28]: 133 mmHg | Activity [29]: 8 - 16% | Activity [30]: 132 mmHg | Activity [31]: 107 mmHg | Activity [32]: 97.7 mmHg | Activity [33]: 143.7 mmHg | Activity [34]: 100.7 mmHg | Activity [35]: 101.5 mmHg | Activity [36]: 99.7 mmHg
